Experiment [1] deals with T1, Era (Staphylococcus aureus, UniProt Q2FY06).
T1 sequence (Q2FY06 1-299): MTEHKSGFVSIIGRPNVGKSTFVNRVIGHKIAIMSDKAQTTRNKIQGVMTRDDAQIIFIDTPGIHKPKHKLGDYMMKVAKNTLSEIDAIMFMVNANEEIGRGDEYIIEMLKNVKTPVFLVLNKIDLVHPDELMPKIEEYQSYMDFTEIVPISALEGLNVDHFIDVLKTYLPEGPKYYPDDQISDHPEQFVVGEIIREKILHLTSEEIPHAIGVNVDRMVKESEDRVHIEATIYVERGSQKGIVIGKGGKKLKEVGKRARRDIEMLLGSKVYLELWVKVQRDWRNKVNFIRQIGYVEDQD
Put plainly: DRaCALA with […]-ppGpp. The experiment is classed as binding.

Experiment [2] deals with Era fused to the SB (small bit of luciferase) (S. aureus). Put plainly: split reporter (BiFC, NanoBiT); split luciferase (SB and LB fusions from pAP118) in S. aureus LAC*; 100 ng/ml Atet for 90 min, normalised to OD600 0.1, Nano-Glo Luciferase Assay; positive only if increased over both negative controls.

In the case of `Nc1nc2c(ncn2[C@@H]2O[C@H](COP(=O)(O)OP(=O)(O)O)[C@@H](OP(=O)(O)OP(=O)(O)O)[C@H]2O)c(=O)[nH]1` [ppGpp], the Kd in experiment [1] is 3.1 ± 0.4 µM.

As for “full-length CshA fused to LB (large bit of luciferase) (natural protein)”, in experiment [2], the fold increase in luciferase activity upon co-expression was found to be 4 fold.

(Values after paper PMC6738653, “The (p)ppGpp-binding GTPase Era promotes rRNA processing and cold adaptation in Staphylococcus aureus” (PLoS Genetics, 2019).)
